From patent US12122763B2, “Substituted piperidines for androgen receptor degradation” (UBIX THERAPEUTICS, INC., priority 2020, dated 2024) come the findings set out here.

This assay has as its target T1, Androgen Receptor (AR) protein (Homo sapiens, UniProt P10275, T878A).
T1 construct: endogenous in cells; host or cells: LNCaP
The experiment in a line: Androgen Receptor (AR) protein degradation assay in LNCaP cells, western blotting. Conditions: 20 h; for inhibition at 0.01 µM: 0.01 μM compound; for inhibition at 0.1 µM: 0.1 μM compound; for inhibition at 1 µM: 1 μM compound; for inhibition at 10 µM: 10 μM compound. In kind it is cell-based. The essentials: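 LNCaP prostate cancer cells were cultured 3 days, then treated with compound for 20 h. Lysates in 1% SDS buffer were normalised by BCA, and 8 μg protein was run on 4–12% Bis-Tris gels. AR was immunoblotted with chemiluminescence, using GAPDH/β-actin as loading controls.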
For orientation: In western blotting, separated proteins are transferred to a membrane and probed.

T1 sequence (P10275 whole entry T878A): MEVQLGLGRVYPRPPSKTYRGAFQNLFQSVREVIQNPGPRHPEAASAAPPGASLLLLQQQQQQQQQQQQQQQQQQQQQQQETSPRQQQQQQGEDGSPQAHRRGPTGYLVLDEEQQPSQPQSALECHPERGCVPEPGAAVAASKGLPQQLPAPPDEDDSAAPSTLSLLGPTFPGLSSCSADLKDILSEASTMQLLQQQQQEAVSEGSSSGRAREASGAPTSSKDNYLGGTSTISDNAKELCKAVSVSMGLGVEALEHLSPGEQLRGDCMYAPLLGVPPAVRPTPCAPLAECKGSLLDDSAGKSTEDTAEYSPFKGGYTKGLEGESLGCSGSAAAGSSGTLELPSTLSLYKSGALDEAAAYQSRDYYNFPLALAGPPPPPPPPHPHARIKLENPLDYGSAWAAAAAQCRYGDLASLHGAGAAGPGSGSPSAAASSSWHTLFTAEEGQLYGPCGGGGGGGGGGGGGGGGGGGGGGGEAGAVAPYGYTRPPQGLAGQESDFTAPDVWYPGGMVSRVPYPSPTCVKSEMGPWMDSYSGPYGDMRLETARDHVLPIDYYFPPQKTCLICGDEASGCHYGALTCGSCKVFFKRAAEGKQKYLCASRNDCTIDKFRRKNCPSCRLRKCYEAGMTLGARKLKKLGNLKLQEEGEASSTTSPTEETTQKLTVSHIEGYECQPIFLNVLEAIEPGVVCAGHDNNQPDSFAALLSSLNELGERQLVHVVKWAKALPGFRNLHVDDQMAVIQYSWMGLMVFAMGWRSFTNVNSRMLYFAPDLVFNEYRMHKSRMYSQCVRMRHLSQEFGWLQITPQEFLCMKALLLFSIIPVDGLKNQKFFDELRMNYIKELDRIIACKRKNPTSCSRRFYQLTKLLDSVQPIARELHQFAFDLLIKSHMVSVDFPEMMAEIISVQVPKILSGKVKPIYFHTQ
T1 sequence (Q96SW2 whole entry partner): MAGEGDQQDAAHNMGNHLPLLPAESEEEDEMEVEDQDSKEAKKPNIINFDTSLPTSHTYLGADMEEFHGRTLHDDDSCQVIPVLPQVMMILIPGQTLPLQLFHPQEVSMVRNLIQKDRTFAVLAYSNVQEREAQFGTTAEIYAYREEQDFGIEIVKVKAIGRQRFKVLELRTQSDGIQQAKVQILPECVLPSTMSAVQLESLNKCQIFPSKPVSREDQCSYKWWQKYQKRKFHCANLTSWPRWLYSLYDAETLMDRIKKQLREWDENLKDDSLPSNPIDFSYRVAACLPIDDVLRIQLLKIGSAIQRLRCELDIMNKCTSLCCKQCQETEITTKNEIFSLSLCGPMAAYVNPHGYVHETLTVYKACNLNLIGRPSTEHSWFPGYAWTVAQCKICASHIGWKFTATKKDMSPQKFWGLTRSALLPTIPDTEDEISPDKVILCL

What is called inhibition is the drop in the measured response relative to a control, in per cent. On to `N#Cc1ncc(N2CCC(C(=O)Nc3ccc(N4CCC(CN5CCN(C6CCN(c7ccc8c(c7)C(=O)N(C7CCC(=O)NC7=O)C8=O)CC6)CC5)CC4)cn3)CC2)cc1C(F)(F)F` (centres unmarked) [Example 73, 1-(6-cyano-5-(trifluoromethyl)pyridin-3-yl)-N-(5-(4-((4-(1-(2-(2,6-dioxopiperidin-3-yl)-1,3-dioxoisoindolin-5-yl)piperidin-4-yl)piperazin-1-yl)methyl)piperidin-1-yl)pyridin-2-yl)piperidine-4-carboxamide], for which the inhibition at 0.01 µM was 55%, the inhibition at 0.1 µM came out at 88% and the inhibition at 1 µM was 92%.

For `N#Cc1ccc(N2CCC(C(=O)Nc3ccc(N4CCC(CN5CCN(c6ccc7c(c6)C(=O)N(C6CCC(=O)NC6=O)C7=O)CC5)CC4)cn3)CC2)cc1C(F)(F)F` (centres unmarked) [Example 1, 1-(4-cyano-3-(trifluoromethyl)phenyl)-N-(5-(4-((4-(2-(2,6-dioxopiperidin-3-yl)-1,3-dioxoisoindolin-5-yl)piperazin-1-yl)methyl)piperidin-1-yl)pyridin-2-yl)piperidine-4-carboxamide], the inhibition at 0.01 µM was determined as 55%, the inhibition at 0.1 µM stood at 98%, the inhibition at 1 µM was determined as 99% and the inhibition at 10 µM was found to be 99%.

`N#Cc1ccc(N2CCC(C(=O)Nc3ccc(N4CCC(CCN5CCN(c6ccc7c(c6)CN(C6CCC(=O)NC6=O)C7=O)CC5)CC4)cn3)CC2)cc1C(F)(F)F` (centres unmarked) [Example 139, 1-(4-cyano-3-(trifluoromethyl)phenyl)-N-(5-(4-(2-(4-(2-(2,6-dioxopiperidin-3-yl)-1-oxoisoindolin-5-yl)piperazin-1-yl)ethyl)piperidin-1-yl)pyridin-2-yl)piperidine-4-carboxamide]: the inhibition at 0.01 µM came out at 30%, the inhibition at 0.1 µM worked out at 92% and the inhibition at 1 µM amounted to 84%.

On to `N#Cc1ccc(N2CCC(C(=O)Nc3ccc(N4CC(CN5CCC(Oc6ccc7c(c6)C(=O)N(C6CCC(=O)NC6=O)C7=O)CC5)C4)cn3)CC2)cc1C(F)(F)F` (centres unmarked) [Example 148, 1-(4-cyano-3-(trifluoromethyl)phenyl)-N-(5-(3-((4-((2-(2,6-dioxopiperidin-3-yl)-1,3-dioxoisoindolin-5-yl)oxy)piperidin-1-yl)methyl)azetidin-1-yl)pyridin-2-yl)piperidine-4-carboxamide], for which the inhibition at 0.01 µM worked out at 27%, the inhibition at 0.1 µM was found to be 87% and the inhibition at 1 µM came out at 93%.

For the compound `N#Cc1ccc(N2CCN(C(=O)Nc3ccc(N4CCC(CN5CC6(CCN(c7ccc8c(c7)C(=O)N(C7CCC(=O)NC7=O)C8=O)CC6)C5)CC4)nc3)CC2)cc1Cl` (centres unmarked) [Example 104, 4-(3-chloro-4-cyanophenyl)-N-(6-(4-((7-(2-(2,6-dioxopiperidin-3-yl)-1,3-dioxoisoindolin-5-yl)-2,7-diazaspiro[3.5]nonan-2-yl)methyl)piperidin-1-yl)pyridin-3-yl)piperazine-1-carboxamide], the inhibition at 0.01 µM was -2%, the inhibition at 0.1 µM was -5%, the inhibition at 1 µM was 36% and the inhibition at 10 µM is 59%.

On to `N#Cc1ccc(N2CCC(C(=O)Nc3ccc(N4CC5(CCN(C[C@@H]6CCN(c7ccc8c(c7)C(=O)N(C7CCC(=O)NC7=O)C8=O)C6)CC5)C4)cn3)CC2)cc1C(F)(F)F` (stereo partly drawn) [Example 126, 1-(4-cyano-3-(trifluoromethyl)phenyl)-N-(5-(7-(((3S)-1-(2-(2,6-dioxopiperidin-3-yl)-1,3-dioxoisoindolin-5-yl)pyrrolidin-3-yl)methyl)-2,7-diazaspiro[3.5]nonan-2-yl)pyridin-2-yl)piperidine-4-carboxamide], for which the inhibition at 0.01 µM stood at 51%, the inhibition at 0.1 µM came to 89% and the inhibition at 1 µM is 96%.

Consider `CN(CC1CCN(c2ccc(NC(=O)C3CCN(c4ccc(C#N)c(C(F)(F)F)c4)CC3)nc2)CC1)CC1CCN(c2ccc3c(c2)C(=O)N(C2CCC(=O)NC2=O)C3=O)CC1` (centres unmarked) [Example 84, 1-(4-cyano-3-(trifluoromethyl)phenyl)-N-(5-(4-((((1-(2-(2,6-dioxopiperidin-3-yl)-1,3-dioxoisoindolin-5-yl)piperidin-4-yl)methyl)(methyl)amino)methyl)piperidin-1-yl)pyridin-2-yl)piperidine-4-carboxamide], for which the inhibition at 0.01 µM was 59%, the inhibition at 0.1 µM was 89% and the inhibition at 1 µM amounted to 88%.

As for `N#Cc1ccc(N2CCC(C(=O)Nc3ccc(N4CCC(CN5CC(CN6CCN(c7ccc8c(c7)C(=O)N(C7CCC(=O)NC7=O)C8=O)CC6)C5)CC4)cn3)CC2)cc1C(F)(F)F` (centres unmarked) [Example 79, 1-(4-cyano-3-(trifluoromethyl)phenyl)-N-(5-(4-((3-((4-(2-(2,6-dioxopiperidin-3-yl)-1,3-dioxoisoindolin-5-yl)piperazin-1-yl)methyl)azetidin-1-yl)methyl)piperidin-1-yl)pyridin-2-yl)piperidine-4-carboxamide], the inhibition at 0.01 µM turned out to be 31%, the inhibition at 0.1 µM worked out at 94% and the inhibition at 1 µM stood at 95%.

Turning to `N#Cc1ccc(N2CCC(F)(C(=O)Nc3ccc(N4CCC(CN5CCN(CC6CCN(c7ccc8c(c7)C(=O)N(C7CCC(=O)NC7=O)C8=O)CC6)CC5)CC4)cn3)CC2)cc1C(F)(F)F` (centres unmarked) [Example 8, 1-(4-cyano-3-(trifluoromethyl)phenyl)-N-(5-(4-((4-((1-(2-(2,6-dioxopiperidin-3-yl)-1,3-dioxoisoindolin-5-yl)piperidin-4-yl)methyl)piperazin-1-yl)methyl)piperidin-1-yl)pyridin-2-yl)-4-fluoropiperidine-4-carboxamide], the inhibition at 0.01 µM turned out to be 37%, the inhibition at 0.1 µM amounted to 87% and the inhibition at 1 µM was 95%.

On to `N#Cc1ccc(N2CCC(C(=O)Nc3ccc(N4CCC(CN5CCN(CC6CCN(c7ccc8c(c7)CN(C7CCC(=O)NC7=O)C8=O)CC6)CC5)CC4)cn3)CC2)cc1C(F)(F)F` (centres unmarked) [Example 143, 1-(4-cyano-3-(trifluoromethyl)phenyl)-N-(5-(4-((4-((1-(2-(2,6-dioxopiperidin-3-yl)-1-oxoisoindolin-5-yl)piperidin-4-yl)methyl)piperazin-1-yl)methyl)piperidin-1-yl)pyridin-2-yl)piperidine-4-carboxamide], for which the inhibition at 0.01 µM was found to be 73%, the inhibition at 0.1 µM was 97% and the inhibition at 1 µM is 97%.

Consider `N#Cc1ccc(N2CCC(C(=O)Nc3ccc(N4CCN(CCOC5CCN(c6ccc7c(c6)C(=O)N(C6CCC(=O)NC6=O)C7=O)CC5)CC4)cn3)CC2)cc1Cl` (centres unmarked) [Example 118, 1-(3-chloro-4-cyanophenyl)-N-(5-(4-(2-((1-(2-(2,6-dioxopiperidin-3-yl)-1,3-dioxoisoindolin-5-yl)piperidin-4-yl)oxy)ethyl)piperazin-1-yl)pyridin-2-yl)piperidine-4-carboxamide], for which the inhibition at 0.01 µM worked out at 34%, the inhibition at 0.1 µM is 62% and the inhibition at 1 µM stood at 88%.

Regarding `N#Cc1ncc(N2CCC(C(=O)Nc3ccc(N4CCC(CN5CC6(CCN(c7ccc8c(c7)CN(C7CCC(=O)NC7=O)C8=O)CC6)C5)CC4)cn3)CC2)cc1C(F)(F)F` (centres unmarked) [Example 137, 1-(6-cyano-5-(trifluoromethyl)pyridin-3-yl)-N-(5-(4-((7-(2-(2,6-dioxopiperidin-3-yl)-1-oxoisoindolin-5-yl)-2,7-diazaspiro[3.5]nonan-2-yl)methyl)piperidin-1-yl)pyridin-2-yl)piperidine-4-carboxamide], the inhibition at 0.01 µM turned out to be 46%, the inhibition at 0.1 µM worked out at 86% and the inhibition at 1 µM turned out to be 82%.

On to `N#Cc1ccc(N2CCC(C(=O)Nc3ccc(N4CCC(CN5CCN(C[C@@H]6CCN(c7ccc8c(n7)CN(C7CCC(=O)NC7=O)C8=O)C6)CC5)CC4)cn3)CC2)cc1C(F)(F)F` (stereo partly drawn) [Example 37, 1-(4-cyano-3-(trifluoromethyl)phenyl)-N-(5-(4-((4-(((3S)-1-(6-(2,6-dioxopiperidin-3-yl)-5-oxo-6,7-dihydro-5H-pyrrolo[3,4-b]pyridin-2-yl)pyrrolidin-3-yl)methyl)piperazin-1-yl)methyl)piperidin-1-yl)pyridin-2-yl)piperidine-4-carboxamide], for which the inhibition at 0.01 µM came to 51%, the inhibition at 0.1 µM was 93% and the inhibition at 1 µM was 90%.

In the case of `N#Cc1ccc(N2CCC(C(=O)Nc3ccc(CC4CCN(CC5CCN(c6cc7c(cc6F)C(=O)N(C6CCC(=O)NC6=O)C7=O)CC5)CC4)cn3)CC2)cc1C(F)(F)F` (centres unmarked) [Example 182, 1-(4-cyano-3-(trifluoromethyl)phenyl)-N-(5-((1-((1-(2-(2,6-dioxopiperidin-3-yl)-6-fluoro-1,3-dioxoisoindolin-5-yl)piperidin-4-yl)methyl)piperidin-4-yl)methyl)pyridin-2-yl)piperidine-4-carboxamide], the inhibition at 0.01 µM came to 72%, the inhibition at 0.1 µM stood at 96% and the inhibition at 1 µM is 98%.

As to `N#Cc1ccc(N2CCC(C(=O)Nc3ccc(N4CC(CN5CCN(C[C@@H]6CCN(c7ccc8c(c7)C(=O)N(C7CCC(=O)NC7=O)C8=O)C6)CC5)C4)cn3)CC2)cc1C(F)(F)F` (stereo partly drawn) [Example 29, 1-(4-cyano-3-(trifluoromethyl)phenyl)-N-(5-(3-((4-(((3S)-1-(2-(2,6-dioxopiperidin-3-yl)-1,3-dioxoisoindolin-5-yl)pyrrolidin-3-yl)methyl)piperazin-1-yl)methyl)azetidin-1-yl)pyridin-2-yl)piperidine-4-carboxamide], the inhibition at 0.01 µM was 80%, the inhibition at 0.1 µM was determined as 97% and the inhibition at 1 µM turned out to be 97%.

For `N#Cc1ccc(N2CCC(C(=O)Nc3ccc(N4CCN(CCCCOc5ccc6c(c5)C(=O)N(C5CCC(=O)NC5=O)C6=O)CC4)cn3)CC2)cc1C(F)(F)F` (centres unmarked) [Example 115, 1-(4-cyano-3-(trifluoromethyl)phenyl)-N-(5-(4-(4-((2-(2,6-dioxopiperidin-3-yl)-1,3-dioxoisoindolin-5-yl)oxy)butyl)piperazin-1-yl)pyridin-2-yl)piperidine-4-carboxamide], the inhibition at 0.01 µM is 18%, the inhibition at 0.1 µM was found to be 89% and the inhibition at 1 µM worked out at 87%.
